Patent publication US20120004307A1, “ORAL TREATMENT OF DIGITAL ISCHEMIC LESIONS” (priority 2010, published 2012)
Like-named read-outs stand apart in the source and are kept apart here.

How the values were obtained:
[1] = for subjects who tolerated the dose: 10 SSc patients
Procedure: During a phase I PK trial of oral treprostinil in SSc patients, the goal was to quantify changes in perfusion as assessed by laser Doppler imaging (LDI) and to determine whether improvements in perfusion correlated with drug concentration.
10 SSc patients with recent or active DU participated in the study.
Dosing: Oral treprostinil titrated up to 4 mg twice daily (BID) as tolerated over 6-8 weeks. Pharmokinetics (PK) and laser Doppler imaging (LDI) assessments: performed when subjects achieved the 2 mg and 4 mg (or maximally tolerated dose) doses. […] 8 serial measures of digital perfusion and drug concentration were obtained over 12 hours at each of the 2 study visits.
Repeated measures analyses were performed using random effects model. Dependent variables were perfusion and skin temperature. The predictor of interest was log-transformed drug concentration. Covariates with p-values less than 0.15 were kept in the model. All data was used, across time points, visits, and hands.

[2] = DISTOL-1 randomized Phase IIB study of oral treprostinil diethanolamine versus placebo, digital ulcers in systemic sclerosis; type: in vivo, human
Text: Primary: To assess the effect of oral treprostinil in reducing net ulcer burden compared to placebo in patients with systemic sclerosis (SSc) as measured by the change in net ulcer burden from Baseline to Follow-up between treatment groups at 20 weeks. […] Target enrollment of […] patients to complete 128 subjects. […] Primary analysis: effect of treprostinil versus placebo on change in net ulcer burden at Week 20 evaluated using non-parametric analysis of covariance within the framework of the extended Cochran-Mantel-Haenszel test.

[3] = 4 mg visit (but not the 2 mg visit), adjusted for time points of Doppler assessment
[4] = Subject 6, 4 mg visit, baseline at drug trough prior to administration of 4 mg dose
[5] = Subject 6, 4 mg visit, twelve hours after dosing

CCCCC[C@H](O)CC[C@@H]1[C@H]2Cc3cccc(OCC(=O)O)c3C[C@H]2C[C@H]1O.OCCNCCO [treprostinil diethanolamine, Treprostinil diethanolamine]
subjects who tolerated the dose ([1]; 2 mg BID by the first PK visit): Nine
subjects who tolerated the dose ([1]; 4 mg BID by the 2nd PK visit): 6 subjects
association of digital skin temperature with log-transformed plasma concentration [1, 3]: positively associated
association of perfusion with log-transformed plasma concentration [1, 3]: positively associated
perfusion versus drug exposure ([1]; AUCs, FIG. 4): increase in perfusion was observed with an increase in drug exposure
plasma concentration versus dose ([1]; AUCs, FIG. 4): increase in plasma concentration was observed with an increase in dose
mean perfusion (laser Doppler imaging) [1, 4]: 89.3 units
skin temperature [1, 4]: 25 °C
perfusion (laser Doppler imaging) [1, 5]: 298.3 units
skin temperature [1, 5]: 32 °C
adverse effects ([1]; titrated up to 4 mg BID over 6-8 weeks): transient and typical of prostacyclin therapy
change in net ulcer burden at Week 20 ([2]; ACA negative subset of patients): statistically significant changes were observed
Time to Cardinal Ulcer Healing (mean days) ([2]; Active n = 71): 76.3 ± 35 days
Time to all Ulcers Healed (mean days) ([2]; Active n = 71): 90.2 ± 35.6 days
Mean # of new ulcers ([2]; Active n = 71, listed under new ulcers formed after Week 5): 0.9
All Ulcers Healed ([2]; Active n = 71, number (%)): 35 (49%)
Any new ulcers formed after Week 5? At least one new ([2]; Active n = 71, number (%)): 27 (38%)
Any new ulcers formed after Week 5? No new ([2]; Active n = 71, number (%)): 30 (42%)
Any new ulcers formed during study? At least one new ([2]; Active n = 71, number (%)): 39 (55%)
Any new ulcers formed during study? No new ([2]; Active n = 71, number (%)): 24 (34%)
Cardinal Ulcer Healed ([2]; Active n = 71, number (%)): 44 (62%)
Discontinuations: Adverse Event ([2]; Active n = 72, number (%) of subjects): 9 (13%)
Mean Change in Net Ulcer Burden Week 20 P value ([2]; Subgroup (ACA) Negative (n = 40/34)): 0.01
Mean Change in Net Ulcer Burden Week 20 P value ([2]; Subgroup (ACA) Positive (n = 19/29)): 0.97
Mean Change in Net Ulcer Burden Week 20 P value ([2]; Subgroup (ATA) Negative (n = 32/38)): 0.58
Mean Change in Net Ulcer Burden Week 20 P value ([2]; Subgroup (ATA) Positive (n = 27/22)): 0.06
Mean Change in Net Ulcer Burden Week 20 P value ([2]; Subgroup >2 active ulcers at Baseline (n = 10/10)): 0.51
Mean Change in Net Ulcer Burden Week 20 P value ([2]; Subgroup ACA Negative/ATA Positive (n = 20/15)): 0.013
Mean Change in Net Ulcer Burden Week 20 P value ([2]; Subgroup Diffuse SSc (n = 31/21)): 0.32
Mean Change in Net Ulcer Burden Week 20 P value ([2]; Subgroup Limited SSc (n = 42/55 Active/Placebo)): 0.42
Mean Change in Net Ulcer Burden Week 20 P value ([2]; Subgroup No PDEI background (n = 59/63)): 0.21
Mean Change in Net Ulcer Burden Week 20 P value ([2]; Subgroup PDEI background (n = 12/13)): 0.90
Mean Change in Net Ulcer Burden Week 20 P value ([2]; Subgroup ≦2 active ulcers at Baseline (n = 61/66)): 0.10
Patient Global and Digital Ulcer pain VAS ([2]; Week 20): Improvement not reaching statistical significance
symptomatic relief of pain and functional deficits associated with ischemic vascular disease ([2]; patients with scleroderma and digital ulcers, orally administered): provided symptomatic relief of pain
change in net ulcer burden at Week 20, primary analysis ([2]; total population, versus placebo): did not achieve statistical significance
